# According to US20090186839A1, “Model for studying the role of genes in chemoresistance” (Cold Spring Harbor Laboratory, priority 2003, published 2009):
# Where two headings read alike, the source gives them in different places.
# Legend:
# Eμ-myc/Akt lymphomas = experiment: In vivo chemotherapy of mice bearing Akt lymphomas; design: species or system mouse
# Source text: (§4) Tumor cells were transplanted from the Akt-expressing tumors and from control tumors (Eμ-myc, arf^−/−, p53^+/+) into syngeneic, non-transgenic 6-10 week old C57BL/6 mice by tail vein injection [10^6 viable lymphoma cells in phosphate-buffered saline (PBS)] and recipient mice were monitored for tumor formation twice a week by palpation of the pre-scapular and cervical lymph-nodes. […] Following treatments, mice were monitored for immediate response and time to relapse by lymph node palpation and by blood smears (by tail artery bleeding) stained according to a modified Wright's protocol using the LeukoStat kit (Fisher Scientific, Pittsburgh, Pa.). The data were statistically evaluated.
# [1] = system: Eμ-myc/ARF−/− control lymphomas; experiment: In vivo chemotherapy of mice bearing control (ARF-null) lymphomas; design: species or system mouse; conditions: CTX 300 mg/kg i.p.
# Source text: as §4
# A ‘complete remission’ (CR) was defined as absence of any palpable tumor and the absence of leukemia, as examined by blood smears. ‘Tumor free survival’ was defined as the time between treatment and reappearance of a well-palpable lymphoma (Schmitt, C. A., et al., “Genetic analysis of chemoresistance in primary murine lymphomas,” Nat. Med. 6: 1029-1035 (2000)). ‘Overall survival’ was defined as the time between treatment and progression to a terminal stage at which the animals were sacrificed. Tumor free and overall survival data were analyzed in the Kaplan-Meier format using the log-rank (Mantel-Cox) test for statistical significance. […]
# Eμ-myc/PTEN+/− tumors = experiment: In vivo chemotherapy of mice bearing PTEN+/− lymphomas; design: species or system mouse; conditions: for reversal of DXR resistance / sensitization to DXR: RAP 4 mg/kg, silvestrol 0.2 mg/kg daily 5 days i.p.
# Experimental: Primary tumors arising in Eμ-myc/PTEN+/− and Ep-myc/PTEN+/− mice were harvested and injected into C57BL/6 (non-transgenic) mice. Upon tumor formation of palpable secondary tumors, mice were treated with a single i.p. administration of drug. The treatment schedule included an injection with either DXR ([…] in 0.9% saline), CTX (300 mg/kg in 0.9% saline), RAP (4 mg/kg in 0.9% H2O with 5% PEG/TWEEN), or a combination thereof (d1: DXR or CTX, d2: DXR or CTX and RAP, d3-5: DXR pr CTX). Mice were then palpated twice weekly for disappearance or recurrence of tumors. Data are presented as Kaplan-Meier plots in FIG. 19, and show the tumor free survival/time to relapse. Time to relapse for mice that were never tumor free was scored as ‘0’ days. […] The bottom panel has an equivalent analysis for treatment with CTX, RAP, and RAP+CTX combination.
# (§1) Primary tumors arising in PTEN+/−Eμ-Myc mice were harvested and a total of 2×10^6 secondary lymphoma cells were injected into the tail veins of 6-8 week old female C57BL/6 (non-transgenic) mice. Upon tumor formation of palpable secondary tumors, mice were treated with i.p. administration of drug. The treatment schedule included an injection with DXR (once at 10 mg/kg), RAP (4 mg/kg daily for 5 days), or silvestrol (0.2 mg/kg daily for 5 days). RAP, DXR, and silvestrol were diluted in 5.2% PEG400/5.2% Tween 80 immediately prior to i.p. injection.
# The ability of rocaglates to work in synergistic combination with other cytotoxic agents has not previously been tested. Silvestrol was therefore tested in combination with DXR, where silvestrol or RAP were administered once daily for 5 consecutive days, with DXR administered on day 2. Mice were then palpated twice weekly for the disappearance or recurrence of tumors.
# Data are presented as Kaplan-Meier plots using the log-rank (Mantel-Cox) test for statistical significance (SigmaStat software) in FIG. 28, and show the tumor free survival/time to relapse. Time to relapse for mice that were never tumor free was scored as ‘0’ days. […]
# Eμ-Myc/eIF4E lymphomas = experiment: In vivo chemotherapy of mice bearing eIF4E lymphomas; design: species or system mouse; conditions: for animals that had developed terminal lymphoma / reversal of DXR resistance / sensitization to DXR: Eμ-Myc/eIF4E tumors, silvestrol 0.2 mg/kg daily 5 days i.p.; for animals that had developed terminal lymphoma: by the 40 day time point, DXR once 10 mg/kg
# Source text: A ‘complete remission’ (CR) was defined as absence of any palpable tumor and the absence of leukemia, as examined by blood smears. ‘Tumor free survival’ was defined as the time between treatment and reappearance of a well-palpable lymphoma (Schmitt, C. A., et al., “Genetic analysis of chemoresistance in primary murine lymphomas,” Nat. Med. 6: 1029-1035 (2000)). ‘Overall survival’ was defined as the time between treatment and progression to a terminal stage at which the animals were sacrificed. Tumor free and overall survival data were analyzed in the Kaplan-Meier format using the log-rank (Mantel-Cox) test for statistical significance. Whole body fluorescence imaging of living animals was performed as described (Schmitt, C. A., et al., “Dissecting p53 tumor suppressor functions in vivo,” Cancer Cell 1: 289-298 (2002) and Yang, M., et al., “Whole-body optical imaging of green fluorescent protein-expressing tumors and metastases.” Proc. Natl. Acad. Sci. USA 97: 1206-1211 (2000)).
# Doxorubicin (Sigma) and cyclophosphamide (Sigma) were dissolved in saline. In treatment studies, control lymphomas were ARF-null tumors arising in an Eμ-myc/ARF−/− background (Schmitt, C. A., et al., “INK4a/ARF mutations accelerate lymphomagenesis and promote chemoresistance by disabling p53,” Genes Dev. 13: 2670-2677 (1999)).
# as §1, with “Eμ-Myc/eIF4E” for “PTEN+/−Eμ-Myc”, “mg/kg),” for “mg/kg), RAP (4 mg/kg daily for 5 days), or”, “days) or various combinations. DXR” for “days). RAP, DXR,”, “injection. In combination studies, silvestrol was administered once daily for 5 consecutive days, with DXR administered on day 2. Mice were then palpated regularly and monitored for the disappearance or recurrence of tumors.” for “injection.”
# Data are presented as Kaplan-Meier plots using the log-rank (Mantel-Cox) test for statistical significance (SigmaStat software) in FIG. 29, showing the tumor free survival/time to relapse, and FIG. 30, showing the overall survival/time. Time to relapse for mice that were never tumor free was scored as ‘0’ days. Tumor free survival was defined as the time between treatment and reappearance of a palpable lymphoma. Overall survival was defined as the time between treatment and progression to a terminal stage at which the animals were sacrificed. […] With either compound alone, approximately 80% of the animals had developed terminal lymphoma by the 40 day time point. With a combination treatment of silvestrol and DXR, less than 30% of the animals had developed terminal lymphoma by the end test point, well over 60 days.
# eIF4A = eIF4A (Homo sapiens, UniProt P60842); experiment: Cross-linking experiments, eIF4A binding to mRNA; assay type: biochemical; conditions: data not shown
# Sequence of eIF4A (P60842 whole entry, species assumed): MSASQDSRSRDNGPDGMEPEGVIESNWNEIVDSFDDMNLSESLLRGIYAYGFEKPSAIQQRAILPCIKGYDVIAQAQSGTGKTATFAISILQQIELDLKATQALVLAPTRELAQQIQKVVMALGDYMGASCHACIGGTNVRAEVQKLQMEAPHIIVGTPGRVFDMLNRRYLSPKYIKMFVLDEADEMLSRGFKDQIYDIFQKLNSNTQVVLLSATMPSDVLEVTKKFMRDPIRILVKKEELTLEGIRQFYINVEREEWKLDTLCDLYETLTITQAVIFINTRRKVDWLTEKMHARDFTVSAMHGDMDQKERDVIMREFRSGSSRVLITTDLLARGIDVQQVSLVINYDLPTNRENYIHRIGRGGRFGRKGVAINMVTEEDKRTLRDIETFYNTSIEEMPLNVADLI
# Source text: Inhibition of translation initiation induces apoptosis (Li et al., 2002, Mol. Cell. Biol. 22, 2853-2861; Polunovsky et al., 2000, J. Biol. Chem. 275, 24776-24780), although the precise mechanism by which this event is triggered is not fully understood. One hypothesis is that changes in the levels or activity of eIF4F mediate the translational regulation of specific genes involved in survival and apoptosis. Gene specific translational control is thought to be mediated by the amount of secondary structure within the 5′ untranslated regions of mRNAs which dictates the eIF4Ac-requirement for ribosome recruitment (Svitkin et al., 2001, RNA 7, 382-394).
# HeLa cells = experiment: [35S]-methionine incorporation into proteins (translation inhibition), 1 h incubation; assay type: cell-based; conditions: read-out: IC50, inhibition of [35S]-methionine incorporation into proteins
# Experimental: Results are the average of three experiments with standard error of the mean shown.
# (§2) The ability of rocaglates to induce apoptosis and inhibit protein synthesis was investigated. […] Jurkat cells were exposed to silvestrol or FA and translation inhibition and apoptosis induction were monitored. Translation initiation was measured as the inhibition of [^35S]-methionine incorporation into proteins in a dose-dependent manner. Apoptosis induction was measured as the percentage of tagged living cells measured by flow cytometry and expressed relative to vehicle treated cells.
# For translation inhibition experiments, HeLa cells were incubated for 1 h with 10 μM anisomycin, 5 μM of the peptide FMRFA, 0.4 μM silvestrol, or vehicle (MeOH). Cells were then washed with PBS, and incubated with media lacking compound for the indicated times. Ten minutes before harvesting, [^35S]-methionine was added to the culture. The rate of [^35S]-methionine incorporation into TCA-insoluble material was measured and was expressed relative to vehicle (MeOH) treated cells.
# Jurkat cells [2] = experiment: [35S]-methionine incorporation rate after 13 h silvestrol; assay type: cell-based; conditions: Homo sapiens, 13 h incubation, read-out: IC50, inhibition of protein synthesis
# Experimental: (§3) Jurkat cells were incubated with the indicated silvestrol concentrations for 13 h after which time the rate of [^35S]-methionine incorporation or the percentage of living cells was measured. [^35S]-methionine was added 10 minutes before the end of the incubation period and the rate of incorporation is expressed relative to vehicle (MeOH) treated cells. Results are the average of two experiments with the error of the mean shown. The percentage of living cells was determined by flow cytometry following staining of the cells with Annexin V and propidium iodide. The percentage of living cells is expressed relative to vehicle (MeOH) treated and the results are the average of three experiments with the error of the mean shown.
# Jurkat cells were incubated with the indicated silvestrol concentrations for 13 h after which time the rate of [^35S]-methionine incorporation or the percentage of living cells was measured. [^35S]-methionine was added 10 min. before the end of the incubation period and the rate of incorporation is measured relative to vehicle (MeOH) treated cells. The percentage of living cells was determined by flow cytometry following staining of the cells with Annexin V and propidium iodide. Silvestrol induced apoptosis in 50% of Jurkat cells following 13 hr exposure (FIG. 27). […]
# Jurkat cells [3] = experiment: Apoptosis / living cells by flow cytometry (Annexin V, propidium iodide); assay type: cell-based; conditions: 13 hr exposure, concentration not given
# Experimental: as §3, with “The percentage of living cells is expressed relative to vehicle (MeOH) treated and the results are the average of three experiments with the error of the mean shown.” left out
# as §2
# Jurkat cells were incubated with the indicated silvestrol concentrations for 13 h after which time the rate of [^35S]-methionine incorporation or the percentage of living cells was measured. [^35S]-methionine was added 10 min. before the end of the incubation period and the rate of incorporation is measured relative to vehicle (MeOH) treated cells. […]
smiles,measurement,setting,value
"O=P1(N(CCCl)CCCl)NCCCO1 (centres unmarked) [CTX, cyclophosphamide]",duration of remissions,"Eμ-myc/Akt lymphomas; Akt lymphomas, CTX 300 mg/kg i.p.",less than 20 days
same,mice achieving remissions lasting more than 60 days,"Eμ-myc/Akt lymphomas; Akt lymphomas, CTX 300 mg/kg, RAP 4 mg/kg x 5 d",none
same,complete remission,[1],invariably entered a complete remission
same,mice remaining tumor free after 100 days,[1],> 50%
"COc1cccc2c1C(=O)c1c(O)c3c(c(O)c1C2=O)C[C@@](O)(C(=O)CO)C[C@@H]3O[C@H]1C[C@H](N)[C@H](O)[C@H](C)O1 [DXR, doxorubicin]",tumor response to therapy,Eμ-myc/PTEN+/− tumors; DXR,resistant to DXR
same,tumor free and overall survival relative to control lymphomas,"Eμ-myc/Akt lymphomas; Akt lymphomas, DXR 10 mg/kg i.p.",substantial reductions in tumor free and overall survival
same,whole body GFP imaging of tumors,"Eμ-myc/Akt lymphomas; Akt-GFP secondary tumors, day 21 post treatment",sizable tumors at several sites
same,animals that had developed terminal lymphoma,Eμ-Myc/eIF4E lymphomas,approximately 80%
same,tumor response to therapy,Eμ-Myc/eIF4E lymphomas; eIF4E lymphomas,highly resistant to DXR therapy
"COC(=O)[C@H]1[C@@H](OC=O)[C@@]2(O)c3c(OC)cc(OC)cc3O[C@@]2(c2ccc(OC)cc2)[C@@H]1c1ccccc1 [FA, 1-O-formylaglafoline]",effect on ability of eIF4A to bind mRNA,eIF4A,stimulate the ability of eIF4A to bind mRNA
same,IC50,HeLa cells; 1 h incubation,~100 nM
COC(=O)[C@H]1[C@@H](O)[C@@]2(O)c3c(OC)cc(O[C@@H]4O[C@@H]([C@H](O)CO)CO[C@H]4OC)cc3O[C@@]2(c2ccc(OC)cc2)[C@@H]1c1ccccc1 [silvestrol],reversal of DXR resistance / sensitization to DXR,Eμ-myc/PTEN+/− tumors,reverse this drug resistance
same,reversal of DXR resistance / sensitization to DXR,Eμ-myc/PTEN+/− tumors; listed as Silvestrol,sensitizes PTEN^+/−Eμ-Myc tumors to the effects of doxorubicin
same,effect on ability of eIF4A to bind mRNA,eIF4A,stimulate the ability of eIF4A to bind mRNA
same,IC50,"HeLa cells; Homo sapiens, HeLa, 1 h",20 nM
same,IC50,Jurkat cells [2],1 nM
same,cells in which apoptosis was induced,Jurkat cells [3],50%
same,animals that had developed terminal lymphoma,Eμ-Myc/eIF4E lymphomas,approximately 80%
same,reversal of DXR resistance / sensitization to DXR,Eμ-Myc/eIF4E lymphomas,reversed this drug resistance
same,reversal of DXR resistance / sensitization to DXR,Eμ-Myc/eIF4E lymphomas; listed as Silvestrol,sensitizes Eμ-Myc/eIF4E tumors to the effects of DXR
